Broadly, the IC50 is the concentration needed to halve the response being measured.

Read-outs that look alike come from different tables or passages of the source.

One assay has as its target PARG (Homo sapiens, UniProt Q86W56). The experiment in a line: Biochemical assay (PARG, TFMU-ADPr substrate).
The test system of a further assay is HCC1806. The experiment in a line: Cell viability assay (CellTiter-Glo). The class given is cell-based, Human. To be noted: HCC1806, 7 days, CellTiter-Glo, read-out: IC50 (nM) in cell viability assay. (In general: In ATP-based viability assays light output follows the ATP content of the culture.)
Setting [1] is: 4 nM PARG, 66.2 uM TFMU-ADPr, 3 min at room temperature.

PARG, sequence (Q86W56 whole entry): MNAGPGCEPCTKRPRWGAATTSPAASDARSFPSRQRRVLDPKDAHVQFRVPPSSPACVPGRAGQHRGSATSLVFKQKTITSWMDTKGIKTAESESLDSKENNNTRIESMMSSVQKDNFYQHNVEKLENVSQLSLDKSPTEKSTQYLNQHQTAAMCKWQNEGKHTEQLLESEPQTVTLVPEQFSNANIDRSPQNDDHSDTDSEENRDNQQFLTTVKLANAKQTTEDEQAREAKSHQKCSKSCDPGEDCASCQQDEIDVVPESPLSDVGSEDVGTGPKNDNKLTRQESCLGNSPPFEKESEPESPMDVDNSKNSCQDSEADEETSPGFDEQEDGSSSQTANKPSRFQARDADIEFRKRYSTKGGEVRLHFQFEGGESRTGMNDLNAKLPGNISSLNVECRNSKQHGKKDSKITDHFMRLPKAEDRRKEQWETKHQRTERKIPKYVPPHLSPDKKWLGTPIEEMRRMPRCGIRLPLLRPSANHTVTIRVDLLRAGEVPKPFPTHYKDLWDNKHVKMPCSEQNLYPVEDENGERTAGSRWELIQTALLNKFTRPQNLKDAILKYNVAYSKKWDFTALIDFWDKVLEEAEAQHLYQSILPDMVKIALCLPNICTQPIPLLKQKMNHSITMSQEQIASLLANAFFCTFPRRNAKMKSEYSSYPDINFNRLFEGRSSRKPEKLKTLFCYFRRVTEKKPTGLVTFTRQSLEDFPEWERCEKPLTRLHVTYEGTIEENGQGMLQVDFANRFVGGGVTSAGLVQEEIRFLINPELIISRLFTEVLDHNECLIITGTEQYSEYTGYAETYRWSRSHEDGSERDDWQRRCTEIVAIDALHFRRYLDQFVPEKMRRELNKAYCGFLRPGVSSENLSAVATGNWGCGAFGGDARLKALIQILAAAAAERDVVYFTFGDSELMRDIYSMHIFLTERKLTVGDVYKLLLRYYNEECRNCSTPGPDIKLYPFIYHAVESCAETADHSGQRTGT

As for `CC(C)C(=O)N1CCN(c2cc(S(=O)(=O)NC3(C)CC3)cn3c(-c4nnc(C(F)(F)F)s4)nnc23)C[C@H]1C` [Example 119, (R)-8-(4-isobutyryl-3-methylpiperazin-1-yl)-N-(1-methylcyclopropyl)-3-(5-(trifluoromethyl)-1,3,4-thiadiazol-2-yl)-[1,2,4]triazolo[4,3-a]pyridine-6-sulfonamide], the IC50 at PARG (setting [1]) is < 100 nM; on PARG (PARG, TFMU-ADPr substrate), 41.7 nM; in the assay with HCC1806, 431 nM; in the assay on HCC1806 (Homo sapiens, HCC1806, 168 h) it was < 500 nM.
In the same order, the values of `CC(C)C(=O)N1CCN(c2cc(S(=O)(=O)NC3(C#N)CC3)cn3c(-c4nnc(C(F)F)s4)nnc23)CC1` [Example 105, N-(1-cyanocyclopropyl)-3-(5-(difluoromethyl)-1,3,4-thiadiazol-2-yl)-8-(4-isobutyrylpiperazin-1-yl)-[1,2,4]triazolo[4,3-a]pyridine-6-sulfonamide] are < 100 nM, 78.6 nM, 10000 nM and 5000 to 30000 nM.
Consider `COC1(C(=O)N2CCN(c3c(F)c(S(=O)(=O)NC4(C)CC4)cn4c(-c5nnc(C(F)F)s5)ncc34)CC2)CC1` [Example 198, 3-(5-(difluoromethyl)-1,3,4-thiadiazol-2-yl)-7-fluoro-8-(4-(1-methoxycyclopropane-1-carbonyl)piperazin-1-yl)-N-(1-methylcyclopropyl)imidazo[1,5-a]pyridine-6-sulfonamide], for which the IC50 amounted to 0.66 nM against PARG (PARG, TFMU-ADPr substrate) and 27.8 nM with HCC1806 (Homo sapiens, HCC1806, 168 h).
In the same order, the values of `CC(=O)N1CCN(c2cc(S(=O)(=O)NC3(C#N)CC3)cn3c(-c4nnc(C(F)(F)F)s4)ncc23)C[C@H]1C` [Example 216, (R)-8-(4-acetyl-3-methylpiperazin-1-yl)-N-(1-cyanocyclopropyl)-3-(5-(trifluoromethyl)-1,3,4-thiadiazol-2-yl)imidazo[1,5-a]pyridine-6-sulfonamide] are 31.6 nM and 2340 nM.
In the same order, the values of `CC1(NS(=O)(=O)c2cc(N3CCC(O)C(O)C3)c3cnc(-c4nnc(C(F)F)s4)n3c2)CC1` (stereo not shown) [Example 349, 3-(5-(difluoromethyl)-1,3,4-thiadiazol-2-yl)-8-(3,4-dihydroxypiperidin-1-yl)-N-(1-methylcyclopropyl)imidazo[1,5-a]pyridine-6-sulfonamide] are 3.98 nM and 455 nM.
In the case of `CC1(NS(=O)(=O)c2cc(N3CCN4C(=O)NCC4C3)c3cnc(-c4nnc(C(F)(F)F)s4)n3c2)COC1` (stereo not shown) [Example 394, N-(3-methyloxetan-3-yl)-8-(3-oxohexahydroimidazo[1,5-a]pyrazin-7(1H)-yl)-3-(5-(trifluoromethyl)-1,3,4-thiadiazol-2-yl)imidazo[1,5-a]pyridine-6-sulfonamide], the IC50 against PARG (PARG, TFMU-ADPr substrate) is 6.56 nM; in the assay with HCC1806 (Homo sapiens, HCC1806, 168 h), 1700 nM.
In the same order, the values of `[2H]c1nc(-c2nnc(C(F)(F)F)s2)n2cc(S(=O)(=O)NC3(C#N)CC3)cc(N3CCN(C(=O)C4CC4)CC3)c12` [Example 157, N-(1-cyanocyclopropyl)-8-(4-(cyclopropanecarbonyl)piperazin-1-yl)-3-(5-(trifluoromethyl)-1,3,4-thiadiazol-2-yl)imidazo[1,5-a]pyridine-6-sulfonamide-1-d] are 33.1 nM and 1020 nM.
For `CC1(NS(=O)(=O)c2cc(N3CCN(C(=O)C4(O)CC4)CC3)c3cnc(-c4nnc(C(F)(F)F)s4)n3c2)CC1` [Example 291, 8-(4-(1-hydroxycyclopropane-1-carbonyl)piperazin-1-yl)-N-(1-methylcyclopropyl)-3-(5-(trifluoromethyl)-1,3,4-thiadiazol-2-yl)imidazo[1,5-a]pyridine-6-sulfonamide], the IC50 against PARG (PARG, TFMU-ADPr substrate) was 9.55 nM; in the assay on HCC1806 (Homo sapiens, HCC1806, 168 h), 65 nM.
Taken in the same sequence, the figures for `CO[C@H]1C[C@H](C(=O)N2CCN(c3cc(S(=O)(=O)NC4(C#N)CC4)cn4c(-c5nnc(C(F)(F)F)s5)ncc34)CC2)C1` [Example 245, N-(1-cyanocyclopropyl)-8-(4-((1r,3r)-3-methoxycyclobutane-1-carbonyl)piperazin-1-yl)-3-(5-(trifluoromethyl)-1,3,4-thiadiazol-2-yl)imidazo[1,5-a]pyridine-6-sulfonamide] were 28.8 nM and 2360 nM.
Taken in the same sequence, the figures for `CC(C)C(=O)N1CC=C(c2cc(S(=O)(=O)NC3(C#N)CC3)cn3c(-c4nnc(C(F)(F)F)s4)ncc23)CC1` [Example 368, N-(1-cyanocyclopropyl)-8-(1-isobutyryl-1,2,3,6-tetrahydropyridin-4-yl)-3-(5-(trifluoromethyl)-1,3,4-thiadiazol-2-yl)imidazo[1,5-a]pyridine-6-sulfonamide] were 13.8 nM and 900 nM.
Turning to `Cc1ncn(CC(=O)N2CCN(c3cc(S(=O)(=O)NC4(C)CC4)cn4c(-c5nnc(C(F)(F)F)s5)ncc34)CC2)n1` [Example 334, 8-(4-(2-(3-methyl-1H-1,2,4-triazol-1-yl)acetyl)piperazin-1-yl)-N-(1-methylcyclopropyl)-3-(5-(trifluoromethyl)-1,3,4-thiadiazol-2-yl)imidazo[1,5-a]pyridine-6-sulfonamide], the IC50 against PARG (PARG, TFMU-ADPr substrate) is 6.31 nM; in the assay on HCC1806 (Homo sapiens, HCC1806, 168 h) it was 354 nM.
Taken in the same sequence, the figures for `CC(C)OC(=O)N1CCN(c2cc(S(=O)(=O)NC3(C#N)CC3)cn3c(-c4nnc(C(F)(F)F)s4)ncc23)CC1` [Example 234, isopropyl 4-(6-(N-(1-cyanocyclopropyl)sulfamoyl)-3-(5-(trifluoromethyl)-1,3,4-thiadiazol-2-yl)imidazo[1,5-a]pyridin-8-yl)piperazine-1-carboxylate] were 13.2 nM and 4000 nM.
On to `CC1(NS(=O)(=O)c2cc(N3CCN(C(=O)C4(F)CNC4)CC3)c3cnc(-c4nnc(C(F)(F)F)s4)n3c2)CC1` [Example 317, 8-(4-(3-fluoroazetidine-3-carbonyl)piperazin-1-yl)-N-(1-methylcyclopropyl)-3-(5-(trifluoromethyl)-1,3,4-thiadiazol-2-yl)imidazo[1,5-a]pyridine-6-sulfonamide], for which the IC50 on PARG (PARG, TFMU-ADPr substrate) came out at 3.54 nM; with HCC1806 (Homo sapiens, HCC1806, 168 h), 1140 nM.
In the same order, the values of `CN1CC2CN(c3cc(S(=O)(=O)NC4(C)COC4)cn4c(-c5nnc(C(F)(F)F)s5)ncc34)CCN2C(=O)C12CC2` (stereo not shown) [Example 393, 8-(2′-methyl-4′-oxohexahydro-4′H,8′H-spiro[cyclopropane-1,3′-pyrazino[1,2-a]pyrazin]-8′-yl)-N-(3-methyloxetan-3-yl)-3-(5-(trifluoromethyl)-1,3,4-thiadiazol-2-yl)imidazo[1,5-a]pyridine-6-sulfonamide] are 5.75 nM and 222 nM.
In the same order, the values of `CC1(NS(=O)(=O)c2cc(N3CCN(C(=O)C4(CO)CC4)CC3)c3cnc(-c4nnc(C(F)(F)F)s4)n3c2)CC1` [Example 345, 8-(4-(1-(hydroxymethyl)cyclopropane-1-carbonyl)piperazin-1-yl)-N-(1-methylcyclopropyl)-3-(5-(trifluoromethyl)-1,3,4-thiadiazol-2-yl)imidazo[1,5-a]pyridine-6-sulfonamide] are 5.01 nM and 374 nM.
With `COC1(C(=O)N2CCN(c3cc(S(=O)(=O)NC4(C)CC4)cn4c(-c5nnc(C(F)F)s5)ncc34)C[C@H]2CF)CC1` [Example 200, (S)-3-(5-(difluoromethyl)-1,3,4-thiadiazol-2-yl)-8-(3-(fluoromethyl)-4-(1-methoxycyclopropane-1-carbonyl)piperazin-1-yl)-N-(1-methylcyclopropyl)imidazo[1,5-a]pyridine-6-sulfonamide], the IC50 was found to be 0.63 nM at PARG (PARG, TFMU-ADPr substrate) and 54.6 nM in the assay with HCC1806 (Homo sapiens, HCC1806, 168 h).
As to `C[C@@H]1CN(c2cc(S(=O)(=O)NC3CC3)cn3c(-c4nnc(C(F)(F)F)s4)nnc23)CCN1C(=O)C1(C)CC1` [Example 386, (R)—N-cyclopropyl-8-(3-methyl-4-(1-methylcyclopropane-1-carbonyl)piperazin-1-yl)-3-(5-(trifluoromethyl)-1,3,4-thiadiazol-2-yl)-[1,2,4]triazolo[4,3-a]pyridine-6-sulfonamide], the IC50 against PARG (PARG, TFMU-ADPr substrate) was found to be 263 nM; with HCC1806 (Homo sapiens, HCC1806, 168 h), 7880 nM.
In the same order, the values of `Cc1nc(-c2nnc(C(F)(F)F)s2)n2cc(S(=O)(=O)NC3(C)CC3)cc(N3CCN(C(=O)[C@H]4CCN4C)CC3)c12` [Example 171, (R)-1-methyl-8-(4-(1-methylazetidine-2-carbonyl)piperazin-1-yl)-N-(1-methylcyclopropyl)-3-(5-(trifluoromethyl)-1,3,4-thiadiazol-2-yl)imidazo[1,5-a]pyridine-6-sulfonamide] are 0.71 nM and 32 nM.
In the same order, the values of `C[C@H]1CN(c2cc(S(=O)(=O)NC3(C)COC3)cn3c(-c4nnc(C(F)F)s4)ncc23)C[C@H](C)N1C` [Example 400, 3-(5-(difluoromethyl)-1,3,4-thiadiazol-2-yl)-N-(3-methyloxetan-3-yl)-8-((3S,5S)-3,4,5-trimethylpiperazin-1-yl)imidazo[1,5-a]pyridine-6-sulfonamide] are 6.31 nM and 267 nM.
In the same order, the values of `CC1(NS(=O)(=O)c2cc(N3CCN(C(=O)C4NCCS4)CC3)c3cnc(-c4nnc(C(F)(F)F)s4)n3c2)CC1` (stereo not shown) [Example 326, N-(1-methylcyclopropyl)-8-(4-(thiazolidine-2-carbonyl)piperazin-1-yl)-3-(5-(trifluoromethyl)-1,3,4-thiadiazol-2-yl)imidazo[1,5-a]pyridine-6-sulfonamide] are 4.82 nM and 257 nM.
Regarding `CC1(NS(=O)(=O)c2cc(N3CCN(C4CC4)CC3)c3cnc(-c4nnc(C(F)F)s4)n3c2)COC1` [Example 364, 8-(4-cyclopropylpiperazin-1-yl)-3-(5-(difluoromethyl)-1,3,4-thiadiazol-2-yl)-N-(3-methyloxetan-3-yl)imidazo[1,5-a]pyridine-6-sulfonamide], the IC50 at PARG (PARG, TFMU-ADPr substrate) came to 41.4 nM; with HCC1806 (Homo sapiens, HCC1806, 168 h) it was 791 nM.

The values above are taken from patent publication US20260258035A1, “FIVE-MEMBERED AND SIX-MEMBERED NITROGEN-CONTAINING COMPOUND, AND INTERMEDIATE, PREPARATION METHOD AND USE THEREOF” (HANGZHOU SYNRX THERAPEUTICS BIOMEDICAL TECHNOLOGY CO., LTD., priority 2022, published 2026).
